Measured values taken from patent EP4813984A1 (Jiangsu Hengrui Pharmaceuticals Co., Ltd., priority 2023, dated 2025).
pEC50: −log10 of the molar value.

Molecular target: T1, hGLP-1 receptor (Homo sapiens, UniProt P43220)
T1 construct: expressed in transfected cells; host or cells: CHO-K1 (stably transfected with hGLP-1 receptor plasmid and CRE-luc plasmid)
Assay: Agonist activity against GLP-1 receptor (CRE-luciferase reporter, ONE-Glo Luciferase Assay System)
Format: cell-based
Conditions: CHO-K1/CRE-luc/hGLP-1 receptor cells; 5 h incubation with compound; chemiluminescence readout
Excerpt: This experiment was intended to test the agonist activity of compound molecules against hGLP-1 receptor and evaluate the in vitro activity of the molecules according to EC50. In this experiment, ONE-Glo™ Luciferase Assay System (ONE-Glo™ Luciferase Assay System, Promega, E6110) was used. Under the action of the compound molecules, GLP-1R downstream signaling pathways were activated to cause elevated cAMP level. The binding of cAMP to CRE could initiate the transcriptional expression of a CRE downstream luciferase gene. The luciferase could emit fluorescence when reacting with a substrate thereof. The fluorescence signal, which reflected the activity of the compound for agonizing GLP-1 receptor, was measured by means ONE-Glo™ reagent.
A stably transfected CHO-K1/CRE-luc/hGLP-1 receptor cell strain (hGLP-1 receptor plasmid constructed in-house and CRE-luc plasmid Promega E8471) was constructed. CHO-K1/CRE-luc/hGLP-1 receptor cells were digested, centrifuged, and then resuspended. The single cell suspension was uniformly mixed and adjusted to a viable cell density of 2.78 × 10^5 cells/ml with a cell culture medium (DME/F-12 + 10% FBS). The resulting solution was added to a 96-well cell culture plate at 90 µL/well (Corning, #3903). The culture plate was incubated in an incubator for 16 h (37°C, 5% CO2).
The compound was dissolved in DMSO to prepare a stock solution with an initial concentration of 20 mM. The starting concentration of the small molecule compound was 0.02 mM. The compound was subjected to 3-fold dilution for 10 points, wherein the 11th point was DMSO. Another 96-well plate was taken, to which was added 95 µL/well of a cell culture medium (DME/F-12 + 10% FBS), followed by 5 µL/well of test samples with different concentrations. The mixtures were uniformly mixed. Next, 10 µL/well of test samples with different concentrations were added to the cell culture plate, with two duplicate wells for each sample. The culture plate was incubated in an incubator for 5 h (37°C, 5% CO2). The 96-well cell culture plate was taken out. 100 µL/well of ONE-Glo™ reagent was added, followed by incubation at room temperature for 10 minutes. Chemiluminescence was measured in and by a microplate reader (PHERAstar FS, BMG labtech).
Data were processed and analyzed using Microsoft Excel and Graphpad Prism 10. EC50 values of the compounds were obtained. Table 1. Agonist activity of the compounds of the present invention against hGLP-1 receptor

T1 sequence (P43220 24-463): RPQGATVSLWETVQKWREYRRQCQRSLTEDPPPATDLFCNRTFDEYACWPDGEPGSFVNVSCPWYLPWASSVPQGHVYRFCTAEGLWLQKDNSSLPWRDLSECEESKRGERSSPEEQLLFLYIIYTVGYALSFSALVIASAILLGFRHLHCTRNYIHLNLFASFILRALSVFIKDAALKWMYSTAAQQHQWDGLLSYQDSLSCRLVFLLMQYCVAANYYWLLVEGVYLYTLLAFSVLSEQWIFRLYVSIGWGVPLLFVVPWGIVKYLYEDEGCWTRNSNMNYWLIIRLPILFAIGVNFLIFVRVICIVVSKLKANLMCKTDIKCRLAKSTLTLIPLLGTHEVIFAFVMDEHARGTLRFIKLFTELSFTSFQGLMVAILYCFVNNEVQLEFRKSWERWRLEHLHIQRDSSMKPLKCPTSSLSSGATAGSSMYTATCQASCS

Row | SMILES | pEC50 | Emax
1 | Cc1cc(-n2nc3c(c2-n2ccn(-c4ccc5c(cnn5C)c4F)c2=O)[C@H](C)N(C(=O)c2cc4cc5c(cc4n2[C@@]2(c4noc(=O)[nH]4)C[C@@H]2C)OCC2COCCC52)CC3)cc(C)c1F (stereo partly drawn) [Compound 4, 3-((1S,2S)-1-(9-((S)-3-(3-(4-fluoro-1-methyl-1H-indazol-5-yl)-2-oxo-2,3-dihydro-1H-imidazol-1-yl)-2-(4-fluoro-3,5-dimethylphenyl)-4-methyl-4,5,6,7-tetrahydro-2H-pyrazolo[4,3-c]pyridine-5-carbonyl)-1,4a,5,11b-tetrahydro-4H-pyrano[4',3':4,5]pyrano[3,2-f]indol-8(2H)-yl)-2-methylcyclopropyl)-1,2,4-oxadiazol-5(4H)-one] | 9.41 | 16.51 fold
2 | Cc1cc(-n2nc3c(c2-n2ccn(-c4ccc5c(cnn5C)c4F)c2=O)[C@H](C)N(C(=O)c2cc4cc5c(cc4n2[C@@]2(c4noc(=O)[nH]4)C[C@@H]2C)OCC52CCOCC2)CC3)cc(C)c1F [Compound 7] | 10.52 | 14.46 fold
3 | Cc1cc(-n2nc3c(c2N2C[C@@H]4COc5c(ccc6c5cnn6C)N4C2=O)[C@H](C)N(C(=O)c2cc4cc([C@H]5CCOC(C)(C)C5)ccc4n2[C@@]2(c4noc(=O)[nH]4)C[C@@H]2C)CC3)cc(C)c1F [Compound 23, (R)-7-((S)-5-(5-((S)-2,2-dimethyltetrahydro-2H-pyran-4-yl)-1-((1S,2S)-2-methyl-1-(5-oxo-4,5-dihydro-1,2,4-oxadiazol-3-yl)cyclopropyl)-1H-indole-2-carbonyl)-2-(4-fluoro-3,5-dimethylphenyl)-4-methyl-4,5,6,7-tetrahydro-2H-pyrazolo[4,3-c]pyridin-3-yl)-1-methyl-5,5a,6,7-tetrahydro-1H,8H-imidazo[1',5':4,5][1,4]oxazino[2,3-e]indazol-8-one] | 10.70 | 22.76 fold
4 | Cc1cc(-n2nc3c(c2N2C[C@@H]4COc5c(ccc6c5cnn6C5CC5)N4C2=O)[C@H](C)N(C(=O)c2cc4cc([C@H]5CCOC(C)(C)C5)ccc4n2[C@@]2(c4noc(=O)[nH]4)C[C@@H]2C)CC3)cc(C)c1F [Compound 24, (R)-1-cyclopropyl-7-((S)-5-(5-((S)-2,2-dimethyltetrahydro-2H-pyran-4-yl)-1-((1S,2S)-2-methyl-1-(5-oxo-4,5-dihydro-1,2,4-oxadiazol-3-yl)cyclopropyl)-1H-indole-2-carbonyl)-2-(4-fluoro-3,5-dimethylphenyl)-4-methyl-4,5,6,7-tetrahydro-2H-pyrazolo[4,3-c]pyridin-3-yl)-5,5a,6,7-tetrahydro-1H,8H-imidazo[1',5':4,5][1,4]oxazino[2,3-e]indazol-8-one] | 10.52 | 18.51 fold
5 | Cc1cc(-n2nc3c(c2N2C[C@@H]4COc5cc6c(cnn6C(F)F)c(F)c5N4C2=O)[C@H](C)N(C(=O)c2cc4cc([C@H]5CCOC(C)(C)C5)ccc4n2[C@@]2(c4noc(=O)[nH]4)C[C@@H]2C)CC3)cc(C)c1F [Compound 25, (R)-7-(difluoromethyl)-2-((S)-5-(5-((S)-2,2-dimethyltetrahydro-2H-pyran-4-yl)-1-((1S,2S)-2-methyl-1-(5-oxo-4,5-dihydro-1,2,4-oxadiazol-3-yl)cyclopropyl)-1H-indole-2-carbonyl)-2-(4-fluoro-3,5-dimethylphenyl)-4-methyl-4,5,6,7-tetrahydro-2H-pyrazolo[4,3-c]pyridin-3-yl)-10-fluoro-2,3,3a,4-tetrahydro-1H,7H-imidazo[1',5':4,5][1,4]oxazino[3,2-f]indazol-1-one] | 10.70 | 18.46 fold
6 | Cc1cc(-n2nc3c(c2N2C[C@@H]4COc5cc6c(cnn6C(C)C)c(F)c5N4C2=O)[C@H](C)N(C(=O)c2cc4cc([C@H]5CCOC(C)(C)C5)ccc4n2[C@@]2(c4noc(=O)[nH]4)C[C@@H]2C)CC3)cc(C)c1F [Compound 40, (R)-2-((S)-5-(5-((S)-2,2-dimethyltetrahydro-2H-pyran-4-yl)-1-((1S,2S)-2-methyl-1-(5-oxo-4,5-dihydro-1,2,4-oxadiazol-3-yl)cyclopropyl)-1H-indole-2-carbonyl)-2-(4-fluoro-3,5-dimethylphenyl)-4-methyl-4,5,6,7-tetrahydro-2H-pyrazolo[4,3-c]pyridin-3-yl)-10-fluoro-7-isopropyl-2,3,3a,4-tetrahydro-1H,7H-imidazo[1',5':4,5][1,4]oxazino[3,2-f]indazol-1-one] | 10.52 | 19.36 fold

The remaining molecules from weak to strong by pEC50, led by results:

Row | pEC50 | Emax | SMILES
7 | 10.05 | 19.88 fold | Cc1cc(-n2nc3c(c2-c2cccn(-c4ccc5c(cnn5C)c4)c2=O)[C@H](C)N(C(=O)c2cc4cc([C@H]5CCOC(C)(C)C5)ccc4n2[C@@]2(c4noc(=O)[nH]4)C[C@@H]2C)CC3)cc(C)c1F [Compound 3, 3-((1S,2S)-1-(5-((S)-2,2-dimethyltetrahydro-2H-pyran-4-yl)-2-((S)-2-(4-fluoro-3,5-dimethylphenyl)-4-methyl-3-(1-(1-methyl-1H-indazol-5-yl)-2-oxo-1,2-dihydropyridin-3-yl)-4,5,6,7-tetrahydro-2H-pyrazolo[4,3-c]pyridine-5-carbonyl)-1H-indol-1-yl)-2-methylcyclopropyl)-1,2,4-oxadiazol-5(4H)-one]
8 | 10.52 | 18.06 fold | Cc1cc(-n2nc3c(c2N2C[C@@H]4COc5c(c(F)cc6c5cnn6C5CC5)N4C2=O)[C@H](C)N(C(=O)c2cc4cc([C@H]5CCOC(C)(C)C5)ccc4n2[C@@]2(c4noc(=O)[nH]4)C[C@@H]2C)CC3)cc(C)c1F [Compound 37, (R)-1-cyclopropyl-7-((S)-5-(5-((S)-2,2-dimethyltetrahydro-2H-pyran-4-yl)-1-((1S,2S)-2-methyl-1-(5-oxo-4,5-dihydro-1,2,4-oxadiazol-3-yl)cyclopropyl)-1H-indole-2-carbonyl)-2-(4-fluoro-3,5-dimethylphenyl)-4-methyl-4,5,6,7-tetrahydro-2H-pyrazolo[4,3-c]pyridin-3-yl)-10-fluoro-5,5a,6,7-tetrahydro-1H,8H-imidazo[1',5':4,5][1,4]oxazino[2,3-e]indazol-8-one]
9 | 10.70 | 19.58 fold | Cc1cc(-n2nc3c(c2N2C[C@@H]4COc5cc6c(cnn6CC(F)(F)F)c(F)c5N4C2=O)[C@H](C)N(C(=O)c2cc4cc([C@H]5CCOC(C)(C)C5)ccc4n2[C@@]2(c4noc(=O)[nH]4)C[C@@H]2C)CC3)cc(C)c1F [Compound 29, (R)-2-((S)-5-(5-((S)-2,2-dimethyltetrahydro-2H-pyran-4-yl)-1-((1S,2S)-2-methyl-1-(5-oxo-4,5-dihydro-1,2,4-oxadiazol-3-yl)cyclopropyl)-1H-indole-2-carbonyl)-2-(4-fluoro-3,5-dimethylphenyl)-4-methyl-4,5,6,7-tetrahydro-2H-pyrazolo[4,3-c]pyridin-3-yl)-10-fluoro-7-(2,2,2-trifluoroethyl)-2,3,3a,4-tetrahydro-1H,7H-imidazo[1',5':4,5][1,4]oxazino[3,2-f]indazol-1-one]
10 | 10.70 | 20.59 fold | COCCn1ncc2c(F)c3c(cc21)OC[C@H]1CN(c2c4c(nn2-c2cc(C)c(F)c(C)c2)CCN(C(=O)c2cc5cc([C@H]6CCOC(C)(C)C6)ccc5n2[C@@]2(c5noc(=O)[nH]5)C[C@@H]2C)[C@H]4C)C(=O)N31 [Compound 30, (R)-2-((S)-5-(5-((S)-2,2-dimethyltetrahydro-2H-pyran-4-yl)-1-((1S,2S)-2-methyl-1-(5-oxo-4,5-dihydro-1,2,4-oxadiazol-3-yl)cyclopropyl)-1H-indole-2-carbonyl)-2-(4-fluoro-3,5-dimethylphenyl)-4-methyl-4,5,6,7-tetrahydro-2H-pyrazolo[4,3-c]pyridin-3-yl)-10-fluoro-7-(2-methoxyethyl)-2,3,3a,4-tetrahydro-1H,7H-imidazo[1',5':4,5][1,4]oxazino[3,2-f]indazol-1-one]
11 | 11.00 | 21.50 fold | Cc1cc(-n2nc3c(c2N2C[C@@H]4COc5cc6c(cnn6C6CC6)c(F)c5N4C2=O)[C@H](C)N(C(=O)c2cc4cc([C@H]5CCOC(C)(C)C5)ccc4n2[C@@]2(c4noc(=O)[nH]4)C[C@@H]2C)CC3)cc(C)c1F [Compound 13, (R)-7-cyclopropyl-2-((S)-5-(5-((S)-2,2-dimethyltetrahydro-2H-pyran-4-yl)-1-((1S,2S)-2-methyl-1-(5-oxo-4,5-dihydro-1,2,4-oxadiazol-3-yl)cyclopropyl)-1H-indole-2-carbonyl)-2-(4-fluoro-3,5-dimethylphenyl)-4-methyl-4,5,6,7-tetrahydro-2H-pyrazolo[4,3-c]pyridin-3-yl)-10-fluoro-2,3,3a,4-tetrahydro-1H,7H-imidazo[1',5':4,5][1,4]oxazino[3,2-f]indazol-1-one]
